Source: US20180271858A1, “SOLUTION FOR ORAL ADMINISTRATION” (OTSUKA PHARMACEUTICAL CO., LTD., priority 2011, published 2018)

Assay: solubility in water (statement in the background section)
Assay type: physicochemical
Conditions: compound (I) or a salt thereof

Structure (SMILES): O=c1ccc2ccc(OCCCCN3CCN(c4cccc5sccc45)CC3)cc2[nH]1 [compound (I), 7-[4-(4-benzo[b]thiophen-4-yl-piperazin-1-yl)butoxy]-1H-quinolin-2-one]
- solubility in water: hardly soluble in water
